Tested on: skeletal muscle fatigue and performance
Assay: Effect of Jasmone on Muscle Fatigue and Performance in exercising subjects
Format: in vivo, human
Experimental: Subjects ranged from 43 to 72 years old. Subjects took 50-100 micrograms of jasmone once a day. All subjects were currently performing various exercise programs. Individual data was collected as to the changes that were noted upon jasmone supplementation.
Subject one, was a person who ran and trained with weights on a regular basis. They took a simplified stress test measuring time to maximum heart rate on treadmill exertion. Pre-Jasmone time on treadmill to target heart rate was 9 minutes. Two weeks after taking Jasmone, stress test results improved to 11 minutes. After 4 weeks of jasmone protocol stress test time increased to 15 min. In addition, after 3 weeks they reported increased weight repetitions by 15 percent and within four weeks increased push ups by 20 percent with same level of exertion as before.
Subject two, was a person who ran on a regular basis. Prior to Jasmone, full exertion exercise routine consisted of approximately 2 miles at 4.5 miles per hour. After two weeks of Jasmone was able to increase routine to running time to 2.5 miles without difficulty.
Subject three (person one), was a person who biked on a regular basis. After 4 weeks of taking Jasmone they increased cycling distance by 50 percent and speed by 10 percent.
Subject four, a person reported who trained with weights on a regular basis, increased weight repetitions of 25% after 4 weeks of taking Jasmone. Subject four, a person regularly performed an exercise routine including weight machines. Prior to taking Jasmone, on a particular machine, they were able to perform 12 repetitions at 60 pds of weight. Two weeks after taking Jasmone was able to increase weight to 80 and repetitions increased to 14.
Subject five, was a person, who regularly exercised but due to travel was unable to maintain normal exercise routine during trial. […] Two examples of this include running through an airport carrying luggage and another running in extreme heat.

CC/C=C\CC1=C(C)CCC1=O [Jasmone, jasmone]
self-reported running ability (Subject five, normal exercise routine not maintained during trial): increased ability to run far and fast without getting winded | increase in weight repetitions (Subject four, after 4 weeks of taking Jasmone): 25% | self-reported strength and endurance (Subject four, after four weeks of Jasmone): felt increased strength and endurance | repetitions on weight machine (Subject four, two weeks after taking Jasmone, prior 12 repetitions): 14 | weight on weight machine (Subject four, two weeks after taking Jasmone, prior 60 pds): 80 pds | increase in weight repetitions (Subject one, after 3 weeks, same level of exertion as before): 15% | stress test time (time on treadmill to target heart rate) (Subject one, after 4 weeks of jasmone, pre-Jasmone 9 minutes): 15 min | time on treadmill to target heart rate (simplified stress test) (Subject one, two weeks after taking Jasmone, 50-100 micrograms once a day, pre-Jasmone 9 minutes): 11 min | increase in push ups (Subject one, within four weeks, same level of exertion as before): 20% | increase in cycling distance (Subject three (person one), after 4 weeks of taking Jasmone): 50% | increase in cycling speed (Subject three, after 4 weeks of taking Jasmone): 10% | workout fatigue (Subject two, after additional two weeks): workout fatigue continued to improve | running routine distance (Subject two, after two weeks of Jasmone, prior approximately 2 miles at 4.5 miles per hour): 2.5 miles

— patent US20120172450A1, “USE OF JASMONATE FOR IMPROVING SKELETAL MUSCLE FUNCTION” (BROADY HEALTH SCIENCES, LLC, priority 2010, published 2012)
